Measurements as given in the supplement of paper PMC11061612.

How the values were obtained:
Test in all cases: combination Emax (second highest fraction inhibited in the dose matrix, 72 h); higher = more inhibition; extreme values may be limits of the assay
[1] = tested on: RPMI-7951 (Melanoma)
How it was run: (§1)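 After 24 hours at 37°C and 5% CO2 in 1536-well plates, cells in DMEM/F12 or RPMI plus 10% FBS received two-drug dose matrices for 72 hours. Viability came from CellTiter-Glo 2.0 luminescence and was scaled as inhibition, anchored at 0 by vehicle wells and at 1 by blank wells. Combination Emax is taken as the second-highest inhibition in the matrix, and Bliss excess as the observed combination effect less EA + EB − EA·EB, with EA and EB the single-agent effects.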

[2] = tested on: IMR-5 (Neuroblastoma)
How it was run: as §1

[3] = tested on: LOU-NH91 (Squamous Cell Lung Carcinoma)
How it was run: as §1

[4] = tested on: GOTO (Neuroblastoma)
How it was run: as §1

[5] = tested on: NH-12 (Neuroblastoma)
How it was run: as §1

[6] = tested on: U-87-MG (Glioblastoma)
How it was run: as §1

[7] = tested on: KP-2 (Pancreatic Carcinoma)
How it was run: as §1

[8] = tested on: OVISE (Ovarian Carcinoma)
How it was run: as §1

[9] = tested on: TGBC11TKB (Gastric Carcinoma)
How it was run: as §1

[10] = tested on: KU-19-19 (Bladder Carcinoma)
How it was run: as §1

[11] = tested on: EBC-1 (Squamous Cell Lung Carcinoma)
How it was run: as §1

[12] = tested on: LC4-1 (B-Lymphoblastic Leukemia)
How it was run: as §1

[13] = tested on: EW-13 (Ewing's Sarcoma)
How it was run: as §1

[14] = tested on: KLE (Endometrial Carcinoma)
How it was run: as §1

[15] = tested on: KYSE-50 (Esophageal Squamous Cell Carcinoma)
How it was run: as §1

[16] = tested on: KINGS-1 (Low Grade Glioma)
How it was run: as §1

[17] = tested on: NCI-N87 (Gastric Carcinoma)
How it was run: as §1

[18] = tested on: SCC-3 (B-Cell Non-Hodgkin's Lymphoma)
How it was run: as §1

[19] = tested on: SCC-9 (Oral Cavity Carcinoma)
How it was run: as §1

[20] = tested on: MFE-319 (Endometrial Carcinoma)
How it was run: as §1

| Structure (SMILES) | combination Emax [1] | combination Emax [2] | combination Emax [3] | combination Emax [4] | combination Emax [5] | combination Emax [6] | combination Emax [7] | combination Emax [8] | combination Emax [9] | combination Emax [10] | combination Emax [11] | combination Emax [12] | combination Emax [13] | combination Emax [14] | combination Emax [15] | combination Emax [16] | combination Emax [17] | combination Emax [18] | combination Emax [19] | combination Emax [20] |
| --- | --- | --- | --- | --- | --- | --- | --- | --- | --- | --- | --- | --- | --- | --- | --- | --- | --- | --- | --- | --- |
| CC1(C)CCC(CN2CCN(c3ccc(C(=O)NS(=O)(=O)c4ccc(NCC5CCOCC5)c([N+](=O)[O-])c4)c(Oc4cnc5[nH]ccc5c4)c3)CC2)=C(c2ccc(Cl)cc2)C1 [Venetoclax] + CN(C)CCCOc1ccc(-c2ccc3ncc4c(c3c2)n(C2CCOCC2)c(=O)n4C)cn1 [AZD0156] (first compound max 1 µM, 7x7, partner max 1 µM) | 0.304 | 0.0957 | 0.227 | 0.455 | 0.483 | 0.203 | 0.19 | 0.262 | 0.235 | 0.135 | 0.275 | 1 | 0.062 | 0.352 | 0.164 | 0.301 | 0.461 | 0.157 | 0.174 | 0.243 |
| CN(CCO)CC[C@H](CSc1ccccc1)Nc1ccc(S(=O)(=O)NC(=O)c2ccc(N3CCC([C@@H](O)c4ccccc4-c4ccc(Cl)cc4)CC3)cc2)cc1S(=O)(=O)C(F)(F)F [AZD4320] + CCN(CCO)CCCOc1ccc2c(Nc3cc(CC(=O)Nc4cccc(F)c4)[nH]n3)ncnc2c1 [AZD2811] (first compound max 1 µM, 7x7, partner max 1 µM) | 0.647 | 1 | 0.877 | 0.649 | 0.962 | 0.253 | 0.921 | 0.828 | 0.439 | 0.498 | 0.931 | 1 | 0.754 | 0.297 | 0.382 | 0.498 | 0.571 | 0.316 | 0.333 | 0.647 |
| Cn1cnc2c(F)c(Nc3ccc(Br)cc3Cl)c(C(=O)NOCCO)cc21 [Selumetinib] + C[C@@H]1COCCN1C2=NC(=NC(=C2)C3(CC3)[S@](=N)(=O)C)C4=C5C=CNC5=NC=C4 [AZD6738] (first compound max 10 µM, 7x7, partner max 10 µM) | 0.873 | 1 | 0.353 | 0.946 | 0.91 | 0.457 | 0.483 | 0.54 | 0.854 | 0.89 | 0.934 | 0.91 | 0.623 | 0.442 | 0.573 | 0.292 | 0.632 | 0.933 | 0.463 | 0.752 |
| Cn1cnc2c(F)c(Nc3ccc(Br)cc3Cl)c(C(=O)NOCCO)cc21 [Selumetinib] + CC(C)n1c(=O)n(C)c2cnc3cc(F)c(-c4ccc(OCCCN5CCCCC5)nc4)cc3c21 [AZD1390] (first compound max 10 µM, 7x7, partner max 0.3 µM) | 0.307 | 0.173 | 0.219 | 0.283 | 0.482 | 0.215 | 0.463 | 0.184 | 0.507 | 0.917 | 0.934 | 0.158 | 0.0488 | 0.178 | 0.21 | 0.232 | 0.3 | 0.369 | 0.379 | 0.154 |
| Cc1nc(Nc2ncc(C(=O)Nc3c(C)cccc3Cl)s2)cc(N2CCN(CCO)CC2)n1 [Dasatinib] + CC(=O)Nc1cccc(-n2c(=O)n(C3CC3)c(=O)c3c(Nc4ccc(I)cc4F)n(C)c(=O)c(C)c32)c1 [Trametinib] (first compound max 2 µM, 7x7, partner max 1 µM) | 0.87 | 0.19 | 0.674 | 0.398 | 0.644 | 0.384 | 0.712 | 0.828 | 0.492 | 1 | 0.997 | 0.244 | 0 | 0.724 | 0.858 | 0.465 | 0.764 | 0.358 | 0.856 | 0.368 |
| CC(=O)c1c(C)c2cnc(Nc3ccc(N4CCNCC4)cn3)nc2n(C2CCCC2)c1=O [Palbociclib] + Cc1c2c(nn1C)CSCc1cc(n(C)n1)CSc1cc(c3ccccc3c1)OCCCc1c(C(=O)O)n(C)c3c-2c(Cl)ccc13 [AZD5991] (first compound max 10 µM, 7x7, partner max 1 µM) | 0.732 | 0.902 | 0.35 | 0.802 | 0.478 | 0.29 | 0.225 | 0.25 | 0.355 | 0.435 | 0.36 | 0.937 | 0.488 | 0.181 | 0.353 | 0.258 | 0.417 | 0.626 | 0.217 | 0.887 |
| CC1(C)CCC(CN2CCN(c3ccc(C(=O)NS(=O)(=O)c4ccc(NCC5CCOCC5)c([N+](=O)[O-])c4)c(Oc4cnc5[nH]ccc5c4)c3)CC2)=C(c2ccc(Cl)cc2)C1 [Venetoclax] + CCN(CCO)CCCOc1ccc2c(Nc3cc(CC(=O)Nc4cccc(F)c4)[nH]n3)ncnc2c1 [AZD2811] (first compound max 1 µM, 7x7, partner max 1 µM) | 0.454 | 1 | 0.307 | 0.693 | 0.933 | 0.265 | 0.228 | 0.311 | 0.424 | 0.404 | 0.225 | 1 | 0.109 | 0.273 | 0.413 | 0.243 | 0.242 | 0.31 | 0.25 | 0.243 |
| Cn1cnc2c(F)c(Nc3ccc(Br)cc3Cl)c(C(=O)NOCCO)cc21 [Selumetinib] + CCN(CCO)CCCOc1ccc2c(Nc3cc(CC(=O)Nc4cccc(F)c4)[nH]n3)ncnc2c1 [AZD2811] (first compound max 10 µM, 7x7, partner max 1 µM) | 0.425 | 1 | 0.372 | 0.648 | 0.729 | 0.252 | 0.468 | 0.273 | 0.569 | 0.955 | 0.964 | 0.891 | 0.218 | 0.286 | 0.409 | 0.22 | 0.305 | 0.43 | 0.494 | 0.262 |
| Cc1c2c(nn1C)CSCc1cc(n(C)n1)CSc1cc(c3ccccc3c1)OCCCc1c(C(=O)O)n(C)c3c-2c(Cl)ccc13 [AZD5991] + Cc1cc2ncnn2cc1Nc1ncc2c(n1)n(C1CCOCC1)c(=O)n2C [AZD7648] (first compound max 1 µM, 7x7, partner max 10 µM) | 0.91 | 1 | 0.278 | 0.72 | 0.226 | 0.326 | 0.2 | 0.269 | 0.359 | 0.26 | 0.291 | 0.968 | 0.403 | 0.342 | 0.284 | 0.326 | 0.492 | 0.308 | 0.26 | 0.471 |
| NC1(C(=O)N[C@@H](CCO)c2ccc(Cl)cc2)CCN(c2ncnc3[nH]ccc23)CC1 [Capivasertib] + COc1nnc2ccc(N3CCC(c4ccc(OCCN5CCN(C)C(=O)[C@H]5C)cc4)CC3)nn12 [AZD5153] (first compound max 10 µM, 7x7, partner max 1 µM) | 0.865 | 0.857 | 0.656 | 0.802 | 0.634 | 0.671 | 0.442 | 0.526 | 0.253 | 0.746 | 0.829 | 0.99 | 0.636 | 0.639 | 0.525 | 0.349 | 0.772 | 0.827 | 0.538 | 0.962 |
| NC1(C(=O)N[C@@H](CCO)c2ccc(Cl)cc2)CCN(c2ncnc3[nH]ccc23)CC1 [Capivasertib] + CC(=O)c1c(C)c2cnc(Nc3ccc(N4CCNCC4)cn3)nc2n(C2CCCC2)c1=O [Palbociclib] (first compound max 10 µM, 7x7, partner max 10 µM) | 0.854 | 0.581 | 0.5 | 0.81 | 0.519 | 0.585 | 0.451 | 0.467 | 0.166 | 0.536 | 0.612 | 0.578 | 0.296 | 0.377 | 0.326 | 0.414 | 0.76 | 0.479 | 0.289 | 0.611 |
| CC1(C)CCC(CN2CCN(c3ccc(C(=O)NS(=O)(=O)c4ccc(NCC5CCOCC5)c([N+](=O)[O-])c4)c(Oc4cnc5[nH]ccc5c4)c3)CC2)=C(c2ccc(Cl)cc2)C1 [Venetoclax] + C1CN(CCC1(C(=O)N[C@@H](CCO)C2=CC=C(C=C2)Cl)N)C3=NC=NC4=C3C=CN4 [Capivasertib] (first compound max 1 µM, 7x7, partner max 3 µM) | 0.472 | 0.19 | 0.36 | 0.365 | 0.612 | 0.403 | 0.0692 | 0.456 | 0.153 | 0.2 | 0.317 | 1 | 0.213 | 0.315 | 0.17 | 0.329 | 0.521 | 0.131 | 0.146 | 0.321 |
